EC50 data for 14 molecules are collected here from patent US11560370B1, “5-membered heteroaryl carboxamide compounds for treatment of HBV” (Assembly Biosciences, Inc., priority 2018, dated 2023).

The EC50 is the concentration giving half of the maximal effect.

Structures are written as SMILES.

The first assay has as its system HBV. Kind of assay: Viral production from HepAD38 cells, viral load by qPCR of HBV core sequence. In kind it is cell-based. The following applies: 5 days, supernatant HBV DNA by qPCR, read-out: Viral Load EC50 Activity range. In outline:
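HepAD38 cells in tetracycline-free medium with 2% FBS, 50,000 cells/well, treated 5 days at 37° C. with compound from 10 μM top concentration (1% DMSO final). Supernatant HBV DNA measured by TaqMan qPCR of core sequence against standards, versus DMSO wells; viability by CellTiter-Glo; EC50/CC50 by four-parameter fit.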
A general note: Real-time PCR tracks product formation cycle by cycle.
Take `COc1cc(C(=O)NCCS(C)(=O)=O)ccc1C1CCC(c2nn(C)c(N)c2C(=O)Nc2ccc(F)c(Cl)c2)C1` (centres unmarked) [AIA-387-2, 5-Amino-N-(3-chloro-4-fluorophenyl)-3-(3-(2-methoxy-4-((2-(methylsulfonyl)ethyl)carbamoyl)phenyl)cyclopentyl)-1-methyl-1H-pyrazole-4-carboxamide]: the EC50 was below 100 nM.
As to `Cn1cc(C(=O)Nc2ccc(F)c(Cl)c2)c(C2CC3CC(=O)CC3C2)n1` (centres unmarked) [AIA-394], the EC50 was in the range of 500 to 10000 nM.
The same measure, in the same setting: the value for `Cn1cc(C(=O)Nc2ccc(F)c(Cl)c2)c(C2CC3CC(O)(CS(C)(=O)=O)CC3C2)n1` (centres unmarked) [AIA-397] was 500 to 10000 nM.
Still for that read-out and setting: the value for `Cn1nc(C2CC3CC4(CNC(=O)C4)CC3C2)c(C(=O)Nc2ccc(F)c(Cl)c2)c1N` (centres unmarked) [HBV-AIA-039] was below 100 nM.

The assay is the same for the next values; noted with them: Hepatitis B virus, HePAD38, 120 h, 5 days, supernatant HBV DNA by qPCR, read-out: Viral Load EC50 Activity range.
On to `Cn1nc(C2CCC(c3csc(C(F)(F)F)n3)C2)c(C(=O)Nc2ccc(F)c(Cl)c2)c1N` (centres unmarked) [AIA-355, 5-Amino-N-(3-chloro-4-fluorophenyl)-1-methyl-3-(3-(2-(trifluoromethyl)thiazol-4-yl)cyclopentyl)-1H-pyrazole-4-carboxamide], for which the EC50 lay in the range of 500 to 10000 nM.
Still for that read-out and setting: the result for `Cn1nc(C2CC3CC(O)(CN4CCOCC4)CC3C2)c(C(=O)Nc2ccc(F)c(Cl)c2)c1N` (centres unmarked) [AIA-364-1, 5-Amin o-N-(3-chloro-4-fluorophenyl)-3-(5-hydroxy-5-(morpholinomethyl)octahydropentalen-2-yl)-1-methyl-1H-pyrazole-4-carboxamide] reads 500 to 10000 nM.
Same read-out and setting: the result for `COc1cc(-c2cn(C)cn2)ccc1C1CCC(c2nn(C)c(N)c2C(=O)Nc2ccc(F)c(Cl)c2)C1` (centres unmarked) [AIA-365-1, 5-Amino-N-(3-chloro-4-fluorophenyl)-3-(3-(2-methoxy-4-(1-methyl-1H-imidazol-4-yl)phenyl)cyclopentyl)-1-methyl-1H-pyrazole-4-carboxamide] reads 100 to 500 nM.
As to `COc1cc(-c2c[nH]cn2)ccc1C1CCC(c2nn(C)c(N)c2C(=O)Nc2ccc(F)c(Cl)c2)C1` (centres unmarked) [AIA-366-1, 3-(3-(4-(1H-Imidazol-4-yl)-2-methoxyphenyl)cyclopentyl)-5-amino-N-(3-chloro-4-fluorophenyl)-1-methyl-1H-pyrazole-4-carboxamide], the EC50 lay within 100 to 500 nM.
For the molecule `COc1cc(-c2cnn(C)c2)ccc1C1CCC(c2nn(C)c(N)c2C(=O)Nc2ccc(F)c(Cl)c2)C1` (centres unmarked) [AIA-369, 5-Amino-N-(3-chloro-4-fluorophenyl)-3-(3-(2-methoxy-4-(1-methyl-1H-pyrazol-4-yl)phenyl)cyclopentyl)-1-methyl-1H-pyrazole-4-carboxamide], the EC50 fell in the range of 100 to 500 nM.
On the same count and under the same terms, the value for `COc1cc(-c2nccs2)ccc1C1CCC(c2nn(C)c(N)c2C(=O)Nc2ccc(F)c(Cl)c2)C1` (centres unmarked) [AIA-371, 5-Amino-N-(3-chloro-4-fluorophenyl)-3-(3-(2-methoxy-4-(thiazol-2-yl)phenyl)cyclopentyl)-1-methyl-1H-pyrazole-4-carboxamide] was 500 to 10000 nM.
Same read-out and setting: the value for `COc1cc(-c2cscn2)ccc1C1CCC(c2nn(C)c(N)c2C(=O)Nc2ccc(F)c(Cl)c2)C1` (centres unmarked) [AIA-372, 5-Amino-N-(3-chloro-4-fluorophenyl)-3-(3-(2-methoxy-4-(thiazol-4-yl)phenyl)cyclopentyl)-1-methyl-1H-pyrazole-4-carboxamide] was below 100 nM; that for `COc1cc(C(=O)NCCS(C)(=O)=O)ccc1C1CCC(c2nn(C)c(N)c2C(=O)Nc2ccc(F)c(Cl)c2)C1` (centres unmarked) [AIA-387-1] was 100 to 500 nM.
Same read-out and setting: the value for `COc1cc(C(=O)NCCN)ccc1C1CCC(c2nn(C)c(N)c2C(=O)Nc2ccc(F)c(Cl)c2)C1` (centres unmarked) [AIA-388, 5-Amino-3-(3-(4-((2-aminoethyl)carbamoyl)-2-methoxyphenyl)cyclopentyl)-N-(3-chloro-4-fluorophenyl)-1-methyl-1H-pyrazole-4-carboxamide] was 100 to 500 nM; that for `Cn1nc(C2CCC(c3cccnc3)C2)c(C(=O)Nc2ccc(F)c(Cl)c2)c1N` (centres unmarked) [CP-AIA-270, 5-Amino-N-(3-chloro-4-fluorophenyl)-1-methyl-3-(3-(pyridin-3-yl)cyclopentyl)-1H-pyrazole-4-carboxamide] was below 100 nM.
